Test results taken from US20240287138A1, “CYCLIC PEPTIDES FOR INHIBITING TNF RECEPTOR 1 ACTIVITY” (Merck Sharp & Dohme LLC, priority 2023, published 2024).
Numbered stars: 1 amine (or outer) side, 2 acyl side, 3 side chain; on linkers, the order of the positions; unused ones are H or OH. Square brackets hold non-standard residues; d marks the D form. Peptide text beside a SMILES is read from it. Trp(βS-Me,7-OMe) = COc1cccc2c([C@H](C)[C@H](N)C(=O)O)c[nH]c12; X21 = COc1cccc2c([C@H](C)[C@H](N[*:1])C(=O)[*:2])c(C)[nH]c12; Trp(7-Br) = N[C@@H](Cc1c[nH]c2c(Br)cccc12)C(=O)O; Trp(7-CN) = N#Cc1cccc2c(C[C@H](N)C(=O)O)c[nH]c12; Trp(7-Cl) = N[C@@H](Cc1c[nH]c2c(Cl)cccc12)C(=O)O; Phe(3-CONH2) = NC(=O)c1cccc(C[C@H](N)C(=O)O)c1; Phe(3-COOH) = N[C@@H](Cc1cccc(C(=O)O)c1)C(=O)O; Phe(4-CONH2) = NC(=O)c1ccc(C[C@H](N)C(=O)O)cc1; Phe(4-COOH) = N[C@@H](Cc1ccc(C(=O)O)cc1)C(=O)O; X30 = O=C([C@@H](N[*:1])[C@H](O)c1ccncc1)[*:2]; dPro(trans-4-F) = O=C(O)[C@H]1C[C@H](F)CN1; Pip(5R-OH) = O=C(O)[C@@H]1CC[C@@H](O)CN1; X1 = O=C([C@@H]1CC[C@H](N[*:1])C1)[*:2]; Pip(4-aza) = O=C(O)[C@@H]1CNCCN1; 4Pal = N[C@@H](Cc1ccncc1)C(=O)O; NMeE = CN[C@@H](CCC(=O)O)C(=O)O; dHyp = O=C(O)[C@H]1C[C@H](O)CN1; Ahp(2) = CCCCC[C@H](N)C(=O)O; αMeS = C[C@](N)(CO)C(=O)O; Nle = CCCC[C@H](N)C(=O)O; Sar = CNCC(=O)O

Key:
[1] = target: T1, human soluble TNFR1 (sTNFR1) (Homo sapiens, UniProt P19438); experiment: Human sTNFR1-peptide displacement assay (LanthaScreen Eu TR-FRET binding assay)
T1 construct: made in house; host or cells: Sf21 (baculovirus)
T1 sequence (P19438 with tags, fused parts or gaps): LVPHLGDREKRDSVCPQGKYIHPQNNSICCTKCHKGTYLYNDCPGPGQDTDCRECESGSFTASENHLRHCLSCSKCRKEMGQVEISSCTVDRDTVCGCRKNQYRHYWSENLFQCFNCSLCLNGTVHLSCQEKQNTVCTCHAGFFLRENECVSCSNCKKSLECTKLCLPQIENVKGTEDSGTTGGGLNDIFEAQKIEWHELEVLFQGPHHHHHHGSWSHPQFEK
How it was run: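 Readout is the 665/615 nm TR-FRET ratio (Eu anti-His donor, streptavidin-Alexa647 acceptor), normalized to DMSO and saturating displacer, fit by Morrison-based five-parameter logistic for Kd^app. His-tagged sTNFR1 (1-211) prebound to 100 nM biotinylated peptide SEQ ID NO.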

[2] = target: T2, human TNFR1 extracellular domain (ECD) protein (Homo sapiens, UniProt P19438); experiment: SPR binding affinity to captured human TNFR1 ECD
T2 construct: HRV 3C protease cleavage site (C); 6His (C, cleaved yes); made in house; host or cells: Sf21 insect cells (baculovirus), secreted
T2 sequence (P19438 30-211): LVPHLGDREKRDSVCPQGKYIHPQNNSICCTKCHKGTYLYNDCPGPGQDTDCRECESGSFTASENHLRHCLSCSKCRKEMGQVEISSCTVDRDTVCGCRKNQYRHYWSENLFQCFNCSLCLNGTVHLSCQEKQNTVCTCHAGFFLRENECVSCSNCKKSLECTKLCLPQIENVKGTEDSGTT
How it was run: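 SPR kinetics: peptides over captured avi-biotinylated receptor ECDs, TNFR1 for affinity, TNFR2 run in parallel for off-target binding. Running buffer HEPES pH 7.4 with 150 mM NaCl, 3 mM EDTA, 0.05% P20, 2% DMSO; surface regenerated between analytes. Affinity derived from kon/koff.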

Compound | Kd [1] | Kd [2]
CCCCC[C@@H]1NC(=O)[C@@H]2CC[C@@H](C2)NC(=O)[C@H]([C@@H](C)c2c[nH]c3c(OC)cccc23)NC(=O)CN(C)C(=O)[C@H](Cc2ccc(C(N)=O)cc2)NC(=O)[C@H](Cc2ccc(C(N)=O)cc2)NC(=O)[C@](C)(CO)NC(=O)[C@H](Cc2c[nH]c3c(C#N)cccc23)NC(=O)[C@H](Cc2ccc(C(=O)O)cc2)NC(=O)[C@H](CC(N)=O)NC(=O)[C@H]2C[C@H](O)CN2C(=O)[C@H](Cc2c[nH]c3ccccc23)NC(=O)[C@H](CO)NC(=O)[C@H]([C@H](O)c2ccncc2)NC1=O [SEQ ID NO. 16] (cyclo([Ahp(2)][X30]SW[dHyp]N[Phe(4-COOH)][Trp(7-CN)][αMeS][Phe(4-CONH2)][Phe(4-CONH2)][Sar][Trp(βS-Me,7-OMe)][X1])) | 0.11 nM | 0.09 nM
CCCC[C@@H]1NC(=O)[C@@H]2CC[C@@H](C2)NC(=O)[C@H]([C@@H](C)c2c[nH]c3c(OC)cccc23)NC(=O)CN(C)C(=O)[C@H](Cc2cccc(C(=O)O)c2)NC(=O)[C@H](Cc2ccc(C(N)=O)cc2)NC(=O)[C@](C)(CO)NC(=O)[C@H](Cc2c[nH]c3c(Cl)cccc23)NC(=O)[C@H](Cc2ccc(C(=O)O)cc2)NC(=O)[C@H](CC(N)=O)NC(=O)[C@H]2C[C@H](O)CN2C(=O)[C@H](Cc2c[nH]c3ccccc23)NC(=O)[C@@H]2CC[C@@H](O)CN2C(=O)[C@H](Cc2ccncc2)NC1=O [SEQ ID NO. 17] (cyclo([4Pal][Pip(5R-OH)]W[dHyp]N[Phe(4-COOH)][Trp(7-Cl)][αMeS][Phe(4-CONH2)][Phe(3-COOH)][Sar][Trp(βS-Me,7-OMe)][X1][Nle])) | 0.16 nM | 0.04 nM
CCCC[C@@H]1NC(=O)[C@@H]2CC[C@@H](C2)NC(=O)[C@H]([C@@H](C)c2c[nH]c3c(OC)cccc23)NC(=O)CN(C)C(=O)[C@H](Cc2ccc(C(N)=O)cc2)NC(=O)[C@H](Cc2ccc(C(N)=O)cc2)NC(=O)[C@](C)(CO)NC(=O)[C@H](Cc2c[nH]c3c(C#N)cccc23)NC(=O)[C@H](Cc2ccc(C(=O)O)cc2)NC(=O)[C@H](CC(N)=O)NC(=O)[C@H](CCC(=O)O)N(C)C(=O)[C@H](Cc2c[nH]c3ccccc23)NC(=O)[C@@H]2CC[C@@H](O)CN2C(=O)[C@H](Cc2ccncc2)NC1=O [SEQ ID NO. 19] (cyclo([4Pal][Pip(5R-OH)]W[NMeE]N[Phe(4-COOH)][Trp(7-CN)][αMeS][Phe(4-CONH2)][Phe(4-CONH2)][Sar][Trp(βS-Me,7-OMe)][X1][Nle])) | 0.08 nM | 0.07 nM
CCCC[C@@H]1NC(=O)[C@@H]2CC[C@@H](C2)NC(=O)[C@H]([C@@H](C)c2c[nH]c3c(OC)cccc23)NC(=O)CN(C)C(=O)[C@H](Cc2ccc(C(=O)O)cc2)NC(=O)[C@H](Cc2ccc(C(N)=O)cc2)NC(=O)[C@](C)(CO)NC(=O)[C@H](Cc2c[nH]c3c(Cl)cccc23)NC(=O)[C@H](Cc2ccncc2)NC(=O)[C@H](CC(N)=O)NC(=O)[C@H]2C[C@H](F)CN2C(=O)[C@H](Cc2c[nH]c3ccccc23)NC(=O)[C@@H]2CC[C@@H](O)CN2C(=O)[C@H](Cc2ccncc2)NC1=O [SEQ ID NO. 101] (cyclo([4Pal][Trp(7-Cl)][αMeS][Phe(4-CONH2)][Phe(4-COOH)][Sar][Trp(βS-Me,7-OMe)][X1][Nle][4Pal][Pip(5R-OH)]W[dPro(trans-4-F)]N)) | 0.05 nM | 0.05 nM
CCCC[C@@H]1NC(=O)[C@@H]2CC[C@@H](C2)NC(=O)[C@H]([C@@H](C)c2c(C)[nH]c3c(OC)cccc23)NC(=O)CN(C)C(=O)[C@H](Cc2ccc(C(=O)O)cc2)NC(=O)[C@H](Cc2ccc(C(N)=O)cc2)NC(=O)[C@](C)(CO)NC(=O)[C@H](Cc2c[nH]c3c(Cl)cccc23)NC(=O)[C@H](Cc2ccc(C(=O)O)cc2)NC(=O)[C@H](CC(N)=O)NC(=O)[C@H]2C[C@H](O)CN2C(=O)[C@H](Cc2c[nH]c3ccccc23)NC(=O)[C@@H]2CC[C@@H](O)CN2C(=O)[C@H](Cc2ccncc2)NC1=O [SEQ ID NO. 106] (cyclo([4Pal][Pip(5R-OH)]W[dHyp]N[Phe(4-COOH)][Trp(7-Cl)][αMeS][Phe(4-CONH2)][Phe(4-COOH)][Sar][X21][X1][Nle])) | 0.05 nM | 0.04 nM
CCCCC[C@@H]1NC(=O)[C@@H]2CC[C@@H](C2)NC(=O)[C@H]([C@@H](C)c2c[nH]c3c(OC)cccc23)NC(=O)CN(C)C(=O)[C@H](Cc2cccc(C(N)=O)c2)NC(=O)[C@H](Cc2ccc(C(N)=O)cc2)NC(=O)[C@](C)(CO)NC(=O)[C@H](Cc2c[nH]c3c(Br)cccc23)NC(=O)[C@H](Cc2ccc(C(=O)O)cc2)NC(=O)[C@H](CC(N)=O)NC(=O)[C@H]2C[C@H](O)CN2C(=O)[C@H](Cc2c[nH]c3ccccc23)NC(=O)[C@@H]2CNCCN2C(=O)[C@H](Cc2ccncc2)NC1=O [SEQ ID NO. 109] (cyclo([4Pal][Pip(4-aza)]W[dHyp]N[Phe(4-COOH)][Trp(7-Br)][αMeS][Phe(4-CONH2)][Phe(3-CONH2)][Sar][Trp(βS-Me,7-OMe)][X1][Ahp(2)])) | 0.11 nM | 0.05 nM
